Data as given in PMC11354392, “Molecular Characteristics of the Malate Dehydrogenase (MDH) Gene Family in Spirometra mansoni (Cestoda: Diphyllobothriidea)” (International Journal of Molecular Sciences, 2024).

Assays:
rSmMDH1 [1] = tested on: T1, rSmMDH1; assay: absorbance […] nm, Lineweaver-Burk; assay type: biochemical, Spirometra mansoni; conditions: apparent
T1 construct: gene SmMDH1

rSmMDH1 [2] = biological target: T1, rSmMDH1; assay: absorbance […] nm, Lineweaver-Burk secondary plot of […]/Vmax; assay type: biochemical, Spirometra mansoni; conditions: forward reaction (oxaloacetate reduction, NADH); 100 mM Tris-HCl pH 7.5, 37 °C; reversible, binds enzyme-substrate complex

NC(=O)C1=CN([C@@H]2O[C@H](COP(=O)(O)OP(=O)(O)OC[C@H]3O[C@@H](n4cnc5c(N)ncnc54)[C@H](O)[C@@H]3O)[C@@H](O)[C@H]2O)C=CC1 [NADH]
Km (rSmMDH1 [1]; forward reaction, oxaloacetate co-substrate, 100 mM Tris-HCl pH 7.5, 37 °C): 1750 µM

NC(=O)c1ccc[n+]([C@@H]2O[C@H](COP(=O)(O)OP(=O)(O)OC[C@H]3O[C@@H](n4cnc5c(N)ncnc54)[C@H](O)[C@@H]3O)[C@@H](O)[C@H]2O)c1 [NAD]
Km (rSmMDH1 [1]; reverse reaction, malic acid co-substrate (methods print lactate), 100 mM Tris-HCl pH 8.6, 37 °C): 1950 µM

O=C(O)C[C@H](O)C(=O)O [malic acid]
Km (rSmMDH1 [1]; reverse reaction, NAD co-substrate, 100 mM Tris-HCl pH 8.6, 37 °C): 1190 µM

O=C(O)CC(=O)C(=O)O [oxaloacetic acid]
Km (rSmMDH1 [1]; forward reaction, NADH co-substrate, 100 mM Tris-HCl pH 7.5, 37 °C, tested 1-10 mM): 63500 µM

NC(=S)c1cccnc1 [thionicotinamide]
Ki (rSmMDH1 [2]): 144 µM
